Test results published in PMC5198017, “The Influence of Solid Microneedles on the Transdermal Delivery of Selected Antiepileptic Drugs” (Pharmaceutics, 2016).
Where a name gives a salt, the structure may show the parent alone. Read-outs that look alike come from different tables or passages of the source.

Columns and labels:
[1] = cited from earlier work
[2] = cited from earlier work; remark: listed apart in the source
[3] = In vitro diffusion studies with vertical Franz diffusion cells across untreated and microneedle-treated skin; assay type: in vitro ADME, pig; conditions: for Statistical significance of difference in flux, untreated versus microneedle-treated skin: porcine skin, carbamazepine as 20% and 30% ethanol solutions, p < 0.05 considered significant; for Transdermal flux, Microneedle: 500 μm microneedle roller-treated porcine ear skin; for Transdermal flux, Microneedle / Transdermal flux, Passive: 12 h, ± SD, n = 6; for Transdermal flux, Passive: untreated porcine ear skin
Method: Pig ears were purchased from Pel-Freez Arkansas LLC (Rogers, AR, USA). Upon arrival, ears were shaved with an electric hair clipper. Full-thickness skins were obtained by using a scalpel to remove subcutaneous fat from ear cartilage. An electric dermatome (Nouvag®, Goldach, Switzerland) was used to prepare split-thickness skins. The thickness of the skin samples was determined with the Digimatic micrometer (Mitutoyo, Tokyo, Japan). Skin membranes were wrapped in aluminum foil and stored at -20 °C until ready for use. Experiments were approved by the Institutional Animal Care and Use Committee (IACUC) and Institutional Biosafety Committee (IBC) of Touro University, Mare Island-Vallejo, CA, USA. Microchannels were created on porcine skins using solid microneedle rollers and skin samples were then clamped to the diffusion cells. The roller was applied to the pig ear skin 15 times (five times in the vertical, horizontal and diagonal directions). The roller was applied with a force of 5 kg (measured with a weighing balance) for approximately 1 min per application. Three microneedle-treated split-thickness skin (STS) samples were used for the experiment while three untreated skin samples served as controls. […] The drug was placed on porcine skin. The pig skin was sandwiched between the donor and receptor compartments of Franz diffusion cells. The donor compartment and covered with parafilm and aluminum foil to reduce evaporation. The sampling ports were also sealed. […] Extractions were stored in 2 mL amber vials from Agilent Technologies (Agilent, Santa Clara, CA, USA) and stored at -8 °C until shipment to the University of Idaho for analysis. Receptor chambers were replenished after each extraction with 1 mL of fresh, pre-warmed PBS maintained at 37 °C. We carried out in vitro diffusion studies with six vertical Franz Diffusion cells (PermeGear, Hellertown, PA, USA). Each cell has donor compartments and receptor compartments. In each cell, there is a magnetic stirrer, sampling port, and a water jacket maintained at a 37 °C model human body temperature. The receptor compartment has a diffusion area of 1.77 cm^2 and the volume is 12 mL. The receptor compartment was filled with PBS, and we utilized high-vacuum grease (Dow Corning, Midland, MA, USA) and a metal clamp to prevent loss of the drug solution through lateral diffusion. HPLC analysis was performed using an Agilent 1200 Series HPLC system with a diode array detection (DAD) system coupled to an Agilent […] TOF-MS system equipped with an ESI source (Agilent, Santa Clara, CA, USA). […] The injection volume was 5 μL. The mobile phase comprised of 0.1% formic acid in water (solvent A) and 0.1% formic acid in methanol (solvent B). We first used a linear gradient from 15% to 95% B in 7 min, and then isocratic elution was carried out at 95% B for 2 min. The final equilibration was conducted at 15% B for 5 min. We diverted the flow from the mass spectrometer for the first 3 min of the analysis, in order to prevent MS contamination and ion suppression. The flow rate was 0.3 mL·min^-1. The average cumulative amount of drug permeation through porcine skin was plotted as a function of time. Steady-state flux was calculated from the linear portion of the average cumulative amount versus time curve. Six replicates were utilized for each drug. […] (1) […] Statistical analysis was performed using GraphPad Prism 7 (GraphPad Software, Inc., La Jolla, CA, USA). The Mann-Whitney Rank Sum test was carried out to determine statistical significance. […] The average of replicate measurements (n = 6) with corresponding standard deviation was used to plot the graphs.

[4] = cited from earlier work; remark: listed apart in the source
[5] = design: method as in PMID 23454133; conditions: after application of nanostructured lipid carriers; cited from earlier work
[6] = tiagabine hydrochloride 5 mg/mL in PBS
[7] = carbamazepine 1 mg/mL in 20% ethanol/PBS, listed as Carbamazepine in 20% ethanol
[8] = carbamazepine 1 mg/mL in 30% ethanol/PBS

Compound | Blood–brain barrier passage ([1]; after drug administration) | Unchanged when excreted as urine [1] | Volume of distribution [1] [L/kg] | Aqueous solubility ([2]; tiagabine hydrochloride) [mg/mL] | Statistical significance of difference in flux, untreated versus microneedle-treated skin [3] | Transdermal flux, Microneedle [3, 6] [µg/cm^2/h] | Transdermal flux, Passive [3, 6] [µg/cm^2/h] | Flux Increase ([3]; tiagabine hydrochloride in PBS, microneedle versus passive) [fold] | Partition coefficient ([4]; tiagabine hydrochloride) | Transdermal flux enhancement [5] | Clearance [1] [L/h/kg] | Excreted in urine unchanged [1] [%] | Aqueous solubility ([2]; at 32 °C in phosphate buffer saline of pH 7.4) [mg/mL] | Transdermal flux, Microneedle [3, 7] [µg/cm^2/h] | Transdermal flux, Passive [3, 7] [µg/cm^2/h] | Transdermal flux, Microneedle [3, 8] [µg/cm^2/h] | Transdermal flux, Passive [3, 8] [µg/cm^2/h] | Partition coefficient [4]
Cc1ccsc1C(=CCCN1CCC[C@@H](C(=O)O)C1)c1sccc1C [Tiagabine hydrochloride, tiagabine hydrochloride] | readily cross the blood–brain barrier | less than 1% | 1 | 10 | statistically significant | 86.42 ± 25.66 | 12.83 ± 6.30 | 6.74 | 2.6 | – | – | – | – | – | – | – | – | –
Cc1cc2c(s1)Nc1ccccc1N=C2N1CCN(C)CC1 [olanzapine] | – | – | – | – | – | – | – | – | – | did not observe significant transdermal flux enhancement | – | – | – | – | – | – | – | –
NC(=O)N1c2ccccc2C=Cc2ccccc21 [Carbamazepine, carbamazepine] | – | – | – | – | not statistically significant | – | – | – | – | – | 0.112 ± 0.0147 | 1 | 0.4406 ± 0.0206 | 10.85 ± 0.11 | 7.85 ± 0.60 | 36.73 ± 1.83 | 30.74 ± 1.32 | 2.7 ± 0.3
